Test results reported in US20250276993A1, “PSEUDO-DISACCHARIDE COMPOUNDS” (UNIVERSITEIT LEIDEN, priority 2022, published 2025).

Key:
HPSE = target: T1, HPSE (Homo sapiens, UniProt Q9Y251); experiment: Fondaparinux cleavage assay; type: biochemical
T1 sequence (Q9Y251 36-109 limits assumed): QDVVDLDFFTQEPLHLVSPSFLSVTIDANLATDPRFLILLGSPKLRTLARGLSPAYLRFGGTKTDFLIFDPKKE
T1 sequence (Q9Y251 158-543 limits assumed): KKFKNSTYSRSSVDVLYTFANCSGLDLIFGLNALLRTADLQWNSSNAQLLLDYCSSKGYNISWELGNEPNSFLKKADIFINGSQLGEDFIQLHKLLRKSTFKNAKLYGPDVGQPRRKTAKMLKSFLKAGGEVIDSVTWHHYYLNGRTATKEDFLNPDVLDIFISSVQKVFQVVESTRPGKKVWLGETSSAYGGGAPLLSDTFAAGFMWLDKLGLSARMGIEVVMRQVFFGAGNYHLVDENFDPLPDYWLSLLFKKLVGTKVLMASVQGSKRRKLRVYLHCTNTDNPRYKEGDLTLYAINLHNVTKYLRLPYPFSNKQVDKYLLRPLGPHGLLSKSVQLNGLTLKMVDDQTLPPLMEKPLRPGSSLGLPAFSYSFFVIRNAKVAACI

[1] = test system: HPSE in U87 glioma-cell lysates; experiment: HSPG digest assay, U87 cell lysates; type: cell-based, human; settings: inhibitor applied before or after cell lysis, comparable H35S solubilization profiles
Procedure: ECM coated 35 mm culture dishes containing ^35S labelled HS were prepared as previously described (Vlodavsky et al., Curr. Protoc. Cell. Biol., Chapter 10, Unit 10, 14). Briefly, bovine corneal endothelial cells were plated at an initial density of 2×10^5 cells/ml, with 4% dextran T-40 (Sigma) included in the growth medium. Na2^35SO4 (25 μCi/ml) was added to the incubation medium on days 2 and 5 after seeding. On day 12, subendothelial ECM is exposed by dissolving the cells with PBS containing 0.5% Triton X-100 and 20 mM NH4OH, followed by four washes with PBS. For HS-degradation assays, ECM coated dishes were incubated with 200 ng recombinant HPSE in 1 mL reaction mixture (10 mM buffer Phosphate-Citrate pH 6.0, 50 mM NaCl, 1 mM DTT, 1 mM CaCl2) containing HPSE inhibitors or DMSO control. Plates were incubated at 37° C. for 5 h, then assay medium collected and applied to a 0.9×30 cm Sepharose 6B size exclusion column. The Sepharose 6B column was eluted with PBS, and ^35S radioactivity of 0.2 mL fractions quantitated using a liquid scintillation analyzer (Packard BioScience). Digest assays with U87 cell lysates were carried out in a similar fashion, except plates were incubated for 18 h with cell extracts prepared from 1×10^6 U87 glioma cells lysed by 3× freeze/thaw cycles.

U87 glioblastoma cells = experiment: Matrigel invasion assay; type: cell-based, human; settings: 20 μM inhibitor, 4 h
Procedure: The Matrigel invasion assay was used to assess the effects of the compounds of the invention on cancer cell aggression. This is an in cellulo model of cell invasion through a HSPG rich basement membrane. The ability of cells to migrate through transwell inserts coated with Matrigel (an ECM secretion from Engelbreth-Holm-Swarm mouse sarcoma cells) correlates well with their in vivo invasive potential (Hall et al., Methods Mol Biol, 1070, 1-11 (2014)).
1×10^5 U87 cells in 200 μL DMEM media (without serum) were seeded onto the top chamber of a Matrigel-coated Boyden transwell filter, alongside 20 μM HPSE inhibitor (or PBS control). Cells in the upper chamber were separated by Matrigel from a lower chamber containing 600 μL DMEM, supplemented with 10% FBS. Plates were incubated at 37° C. for 4 h, before fixing cells in 4% (v/v) paraformaldehyde, and staining with 0.5% (w/v) crystal violet. Matrigel and non-migrating cells in the upper side of the Boyden filter were removed by swabbing, then invading cells on the bottom side of the transwell filter imaged for analysis. 10 randomly selected microscopic fields were recorded, and cell invasion calculated using ImageJ, by quantitating the percentage of the field stained by crystal violet. Graphs were plotted using RStudio.
The Matrigel invasion assay was used to assess the effects of the compounds of the invention on cancer cell aggression. […]

[2] = test system: 4T1 mouse mammary carcinoma cells; experiment: 4T1 breast cancer lung metastasis model; type: in vivo, Balb/c mice; settings: 2: 300 nmol/mouse i.p.; SST0001: 150 μg/mouse i.p.; bioluminescence, 14 day timepoint
Procedure: 4T1 breast cancer—Twenty minutes before tumor cell inoculation, Balb/c mice (n=5) were injected intraperitoneally with vehicle alone (PBS), compound 2 (300 nmol/mouse), or SST0001 (150 μg/mouse). Mice were subsequently intravenously inoculated with 1.5×10^5 luciferase tagged 4T1 mouse mammary carcinoma cells/mouse in a volume of 100 μL, alongside 20 μM 2 or 10 μg SST0001.
Bioluminescence imaging of lung metastases produced by luciferase-expressing 4T1 cells was carried out using a highly sensitive, cooled charge-coupled device camera assembled in a specimen box (IVIS; Xenogen Corp, Hopkinton, MA). For this, the tumor-bearing mice were intraperitoneally administered with a luciferase substrate D-luciferin at a dose of 150 mg/kg body weight. The mice were anesthetized and kept in a camera box followed by continuous exposure to isoflurane (EZAnesthesia, Palmer, PA, USA). The tumor burden was quantified using Living Image software (Xenogen) (U. Barash et al., Journal of the National Cancer Institute 110, 1102-1114, 2018; M. Weissmann et al., Proc Natl Acad Sci, 113, 704-709, 2016)
The compounds of the invention were tested against a B16 murine melanoma experimental metastasis model, which measures the formation of metastatic lung tumors by B16 cancer cells after intravenous (i.v.) injection. […]

CAG human myeloma cells = experiment: CAG myeloma metastasis model; type: in vivo, NOD/SCID mice
Procedure: CAG myeloma—Luciferase-labeled CAG human myeloma cells (3×10^6) were injected into the tail vein of NOD/SCID mice. 3-5 days after cell inoculation, mice were randomly assigned to 4 cohorts (6 mice each) receiving: (a) vehicle, (b) compound 2 (i.p. 300 nmol/day), (c) bortezomib (0.5 mg/kg twice weekly) or (d) 2 plus bortezomib (dosing as for individual compounds). Tumor development was inspected (every 7 days) by IVIS imaging as detailed above. Tumor burden was quantified using Living Image software. Plots and statistical analyses were carried out in Prism 9 (Graphpad software).

Question: How did the “fold more potent than reference inhibitors #98 (10) and OGT2115 (11)” value (HPSE) turn out when `CC(=O)NC1C(O)[C@H](O)C(CO)O[C@@H]1O[C@H]1C(O)C(O)[C@@H]2OC2C1C(=O)O` (stereo partly drawn) [Compound 2, 4-O-(2-N-acetyl-2-deoxy-D-glucopyranosyl)-glucurono-cyclophellitol] was run?
Answer: The value was “approximately 2 fold”.

Question: And the “cell penetration / inhibition of intracellular HPSE pool” value [1]?
Answer: The value was “can penetrate cells to inhibit the intracellular HPSE pool”.

Question: And the Matrigel invasion (U87 glioblastoma cells)?
Answer: The Matrigel invasion was “significantly reduced Matrigel invasion”.

Question: And the “incidence of lung metastases (4T1)” value [2]?
Answer: The value was “marked reduction in the incidence of lung metastases”.

Question: What about the “metastatic burden (CAG myeloma)” value (CAG human myeloma cells; 2: i.p. 300 nmol/day, bortezomib 0.5 mg/kg twice weekly, IVIS imaging) of the same compound?
Answer: The value was “marked reduction in metastatic burden”.

Question: What about the “efficacy at prolonged treatment (CAG myeloma)” value (CAG human myeloma cells; 33 day timepoint) of the same compound?
Answer: Its value is “lower efficacy following prolonged treatment”.
